From ChEMBL document CHEMBL1149309, “Potent, selective and low-calcemic inhibitors of CYP24 hydroxylase: 24-sulfoximine analogues of the hormone 1alpha,25-dihydroxyvitamin D(3)” (J Med Chem, 2004)

Biological target: T1, Vitamin D3 receptor (Homo sapiens) (UniProt P11473)
T1 sequence (whole entry): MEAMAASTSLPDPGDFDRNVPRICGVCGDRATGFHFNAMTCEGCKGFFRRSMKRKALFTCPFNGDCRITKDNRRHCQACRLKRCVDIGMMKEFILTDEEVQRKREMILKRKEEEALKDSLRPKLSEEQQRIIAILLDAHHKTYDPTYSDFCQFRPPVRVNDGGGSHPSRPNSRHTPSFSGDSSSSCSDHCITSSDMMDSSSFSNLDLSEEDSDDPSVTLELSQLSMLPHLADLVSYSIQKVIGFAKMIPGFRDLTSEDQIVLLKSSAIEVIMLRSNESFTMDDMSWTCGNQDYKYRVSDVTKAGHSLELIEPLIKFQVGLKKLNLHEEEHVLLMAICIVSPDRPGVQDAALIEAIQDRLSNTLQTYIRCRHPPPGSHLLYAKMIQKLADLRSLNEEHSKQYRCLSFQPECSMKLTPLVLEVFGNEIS
Details: CV-1
Description: Effect on VDR-mediated transcriptional activity in CV1 cells transfected with human recombinant VDR

Row | ED50 [nM] | Structure (SMILES)
1 | > 1000 | C=C1/C(=C\C=C2/CCC[C@]3(C)[C@@H]([C@H](C)CCS(=N)(=O)c4ccccc4)CC[C@@H]23)C[C@@H](O)C[C@@H]1O (stereo in doubt; 3a) [listing 1 of 2 here]
2 | > 1000 | C=C1/C(=C\C=C2/CCC[C@]3(C)[C@@H]([C@H](C)CCS(=N)(=O)c4ccccc4)CC[C@@H]23)C[C@@H](O)C[C@@H]1O (stereo in doubt; 3b)

Biological target: T2, 25-hydroxyvitamin D-1 alpha hydroxylase, mitochondrial (Homo sapiens, UniProt O15528)
T2 sequence (O15528 whole entry): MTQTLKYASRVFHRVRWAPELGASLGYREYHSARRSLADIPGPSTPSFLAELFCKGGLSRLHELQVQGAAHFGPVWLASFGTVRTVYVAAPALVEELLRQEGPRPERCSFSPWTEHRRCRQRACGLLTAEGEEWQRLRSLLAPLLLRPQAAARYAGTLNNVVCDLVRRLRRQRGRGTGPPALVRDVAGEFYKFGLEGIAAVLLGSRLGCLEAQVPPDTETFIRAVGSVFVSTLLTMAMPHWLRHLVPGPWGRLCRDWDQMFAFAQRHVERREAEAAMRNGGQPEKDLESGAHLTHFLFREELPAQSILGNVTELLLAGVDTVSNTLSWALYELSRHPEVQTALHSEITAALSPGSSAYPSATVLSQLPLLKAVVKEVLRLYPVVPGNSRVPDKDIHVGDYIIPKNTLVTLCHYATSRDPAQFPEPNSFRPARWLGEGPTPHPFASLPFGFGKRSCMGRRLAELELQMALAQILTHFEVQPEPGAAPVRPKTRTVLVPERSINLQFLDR
Assay: Inhibition of human CYP27B hydroxylase expressed in SW900 cells
Assay type: cell-based
Details: not given

Row | IC50 [nM] | Structure (SMILES)
3 | 554 | C=C1/C(=C\C=C2/CCC[C@]3(C)[C@@H]([C@H](C)CCS(=N)(=O)c4ccccc4)CC[C@@H]23)C[C@@H](O)C[C@@H]1O (stereo in doubt; 3a) [listing 2 of 2 here]

Biological target: T3, 1,25-dihydroxyvitamin D(3) 24-hydroxylase, mitochondrial (Homo sapiens, UniProt Q07973)
T3 sequence (Q07973 whole entry): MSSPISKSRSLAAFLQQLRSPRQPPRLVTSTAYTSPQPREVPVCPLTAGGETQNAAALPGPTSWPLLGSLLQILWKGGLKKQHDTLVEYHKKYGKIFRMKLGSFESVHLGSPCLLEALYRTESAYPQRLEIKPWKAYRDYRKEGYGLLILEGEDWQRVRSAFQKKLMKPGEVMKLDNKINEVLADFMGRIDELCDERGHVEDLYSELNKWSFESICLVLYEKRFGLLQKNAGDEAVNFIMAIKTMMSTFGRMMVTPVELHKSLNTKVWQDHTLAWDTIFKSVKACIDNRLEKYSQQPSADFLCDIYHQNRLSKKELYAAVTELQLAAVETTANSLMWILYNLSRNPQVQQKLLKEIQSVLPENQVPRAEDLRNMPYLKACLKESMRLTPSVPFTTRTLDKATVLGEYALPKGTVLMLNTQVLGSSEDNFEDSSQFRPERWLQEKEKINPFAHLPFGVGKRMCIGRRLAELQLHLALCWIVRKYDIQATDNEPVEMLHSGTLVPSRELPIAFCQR
Assay: Inhibition of human CYP24 hydroxylase expressed in V79 cells
Assay type: cell-based
Details: not given

Row | Structure (SMILES) | IC50 [nM]
4 | C=C1/C(=C\C=C2/CCC[C@]3(C)[C@@H]([C@H](C)CCS(=N)(=O)c4ccccc4)CC[C@@H]23)C[C@@H](O)C[C@@H]1O (stereo in doubt; 3a) [listing 2 of 2 here] | 7.4
5 | C=C1CC[C@H](O)C/C1=C/C=C1\CCC[C@]2(C)[C@@H]([C@H](C)CC[S+](=N)([O-])c3ccccc3)CC[C@@H]12 (stereo partly drawn) | 75
6 | C=C1/C(=C\C=C2/CCC[C@]3(C)[C@@H]([C@H](C)/C=C(\F)[S+](=N)([O-])c4ccccc4)CC[C@@H]23)C[C@@H](O)C[C@@H]1O (stereo partly drawn) | > 1000
7 | C[C@H](CC[S+](=N)([O-])c1ccccc1)[C@H]1CC[C@H]2/C(=C/C=C3C[C@@H](O)C[C@H](O)C3)CCC[C@]12C (stereo in doubt; 3d) | 9.7
8 | C=C1/C(=C\C=C2/CCC[C@]3(C)[C@@H]([C@H](C)CC[S+](=N)([O-])c4ccc(F)cc4)CC[C@@H]23)C[C@@H](O)C[C@@H]1O (stereo in doubt; 3i) | 44
9 | C[C@H](CC[S+](=N)([O-])c1ccccc1)[C@H]1CC[C@H]2/C(=C/C=C3C[C@@H](O)C[C@H](O)C3)CCC[C@]12C (stereo in doubt; 3c) | 13

Results, then the molecule that gave them:

Row | IC50 [nM] | Structure (SMILES)
10 | 549 | C=C1/C(=C\C=C2/CCC[C@]3(C)[C@@H]([C@@H](C)/C=C/[S+](=N)([O-])c4ccccc4)CC[C@@H]23)C[C@@H](O)C[C@@H]1O (stereo partly drawn)
11 | 20.5 | C=C1/C(=C\C=C2/CCC[C@]3(C)[C@@H]([C@H](C)CC4([S+](=N)([O-])c5ccccc5)CC4)CC[C@@H]23)C[C@@H](O)C[C@@H]1O (stereo in doubt; 3f)
12 | 50 | C=C1/C(=C\C=C2/CCC[C@]3(C)[C@@H]([C@H](C)CC4([S+](=N)([O-])c5ccccc5)CC4)CC[C@@H]23)C[C@@H](O)C[C@@H]1O (stereo in doubt; 3g)
13 | > 1000 | C=C1/C(=C\C=C2/CCC[C@]3(C)[C@@H]([C@H](C)/C=C/[S+](=N)([O-])c4ccccc4)CC[C@@H]23)C[C@@H](O)C[C@@H]1O (stereo partly drawn)
